Read-outs that look alike come from different tables or passages of the source.
Experiments:
Drosophila OR49b = target: T1, Drosophila OR49b (Drosophila melanogaster, UniProt Q9V6H2); assay: cell-based; settings: for Average response / OR49b response (VUAA1-normalized) at 1 μM / OR49b response (VUAA1-normalized) at 10 μM / OR49b response (VUAA1-normalized) at 100 μM: OR49b cell line; for Average response: mean of biological replicates; for activation at 1 µM / activation at 10 µM / activation at 100 µM: HEK293
T1 construct: expressed in transfected cells
T1 sequence (Q9V6H2 1-375): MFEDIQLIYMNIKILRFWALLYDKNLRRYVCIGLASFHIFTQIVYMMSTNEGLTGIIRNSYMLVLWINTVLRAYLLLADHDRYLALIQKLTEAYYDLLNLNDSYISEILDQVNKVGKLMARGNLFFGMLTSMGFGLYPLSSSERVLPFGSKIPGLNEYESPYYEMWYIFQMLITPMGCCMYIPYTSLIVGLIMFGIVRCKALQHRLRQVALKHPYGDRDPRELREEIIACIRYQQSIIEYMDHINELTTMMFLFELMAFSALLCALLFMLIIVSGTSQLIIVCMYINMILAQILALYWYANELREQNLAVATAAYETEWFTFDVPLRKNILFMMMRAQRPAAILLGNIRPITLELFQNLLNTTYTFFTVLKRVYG
T1 sequence (Q9VNB5 1-486 partner): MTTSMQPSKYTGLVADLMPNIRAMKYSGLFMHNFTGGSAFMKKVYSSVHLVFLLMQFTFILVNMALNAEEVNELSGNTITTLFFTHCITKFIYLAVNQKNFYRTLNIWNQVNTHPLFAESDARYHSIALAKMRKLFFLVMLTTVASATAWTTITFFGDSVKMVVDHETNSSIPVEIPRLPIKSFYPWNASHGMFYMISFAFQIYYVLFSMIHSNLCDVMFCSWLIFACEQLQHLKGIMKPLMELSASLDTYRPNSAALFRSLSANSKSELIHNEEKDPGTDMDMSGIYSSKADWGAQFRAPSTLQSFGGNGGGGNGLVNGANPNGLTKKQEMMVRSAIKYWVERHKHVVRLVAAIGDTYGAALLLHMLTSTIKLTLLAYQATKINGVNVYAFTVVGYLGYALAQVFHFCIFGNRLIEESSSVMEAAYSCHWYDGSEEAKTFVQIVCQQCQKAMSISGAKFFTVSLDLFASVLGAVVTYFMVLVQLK
Outline: (§1)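 HEK293 lines stably expressing each Drosophila OR with GCaMP6, doxycycline-induced (1 μg/mL) 48 or 72 h. Fluorescence recorded 5 s baseline then 30 s after VOC injection at pH 7.3; ΔF=(FMAX−F0)/F0, normalized to 50 µM VUAA1 response per line, triplicate wells averaged; concentration series 0.01–100 μM.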

Drosophila OR71a = target: T2, Drosophila OR71a (Drosophila melanogaster, UniProt Q9VUK5); assay: Calcium ion fluorescence (GCaMP6) assay, OR71a stable HEK293 cell line; format: cell-based; settings: for Average response / OR71a response (VUAA1-normalized) at 1 μM / OR71a response (VUAA1-normalized) at 10 μM / OR71a response (VUAA1-normalized) at 100 μM: OR71a cell line; for Average response: VUAA1-normalized response, mean of biological replicates; for activation at 1 µM / activation at 10 µM / activation at 100 µM: HEK293, read-out: OR71a response (VUAA1-normalized response)
T2 construct: expressed in transfected cells
T2 sequence (Q9VUK5 1-378): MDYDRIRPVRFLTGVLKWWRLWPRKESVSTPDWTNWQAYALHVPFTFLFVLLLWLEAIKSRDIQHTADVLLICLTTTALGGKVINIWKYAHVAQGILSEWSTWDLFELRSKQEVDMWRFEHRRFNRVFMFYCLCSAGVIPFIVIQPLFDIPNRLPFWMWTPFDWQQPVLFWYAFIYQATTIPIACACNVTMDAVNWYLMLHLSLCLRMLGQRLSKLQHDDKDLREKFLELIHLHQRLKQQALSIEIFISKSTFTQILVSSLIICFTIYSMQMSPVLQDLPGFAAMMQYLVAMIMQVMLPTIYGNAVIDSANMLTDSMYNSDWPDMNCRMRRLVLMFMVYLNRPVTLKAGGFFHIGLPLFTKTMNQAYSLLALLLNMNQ
T2 sequence (Q9VNB5 1-486 partner): T1 sequence (Q9VNB5 1-486 partner)
Outline: as §1

[1] = concentration 1, normalized fluorescence change, values below 0.05 threshold given as 0
[2] = concentration 10, normalized fluorescence change, values below 0.05 threshold given as 0
[3] = concentration 100, normalized fluorescence change, values below 0.05 threshold given as 0
[4] = VOC concentration 1 μM, read-out: OR49b response (VUAA1-normalized response)
[5] = VOC concentration 10 μM, read-out: OR49b response (VUAA1-normalized response)
[6] = VOC concentration 100 μM, read-out: OR49b response (VUAA1-normalized response)
[7] = ligand concentration 1 (unit not given), threshold 0.05, below shown as 0
[8] = ligand concentration 10 (unit not given), threshold 0.05, below shown as 0
[9] = ligand concentration 100 (unit not given), threshold 0.05, below shown as 0
[10] = ligand concentration 1 (unit not given), 0.05 threshold, values below shown as 0
[11] = ligand concentration 10 (unit not given), 0.05 threshold, values below shown as 0
[12] = ligand concentration 100 (unit not given), 0.05 threshold, values below shown as 0
[13] = 1 μM VOC, 50 μM VUAA1 = 1, read-out: OR49b Average response (VUAA1-normalized)
[14] = 10 μM VOC, 50 μM VUAA1 = 1, read-out: OR49b Average response (VUAA1-normalized)
[15] = 100 μM VOC, 50 μM VUAA1 = 1, read-out: OR49b Average response (VUAA1-normalized)

| Molecule | DF norm AVERAGE OR49b (Drosophila OR49b) | Average response (Drosophila OR49b; odorant cc. 1 µM) | Average response (Drosophila OR49b; odorant cc. 10 µM) | Average response (Drosophila OR49b; odorant cc. 100 µM) | OR49b response (VUAA1-normalized response) (Drosophila OR49b; VOC concentration 1 μM) | OR49b response (VUAA1-normalized response) (Drosophila OR49b; VOC concentration 10 μM) | OR49b response (VUAA1-normalized response) (Drosophila OR49b; VOC concentration 100 μM) | Average response (Drosophila OR71a; cc. 1 µM) | Average response (Drosophila OR71a; cc. 10 µM) | Average response (Drosophila OR71a; cc. 100 µM) | OR71a response (VUAA1-normalized response) (Drosophila OR71a; VOC concentration 1 μM) | OR71a response (VUAA1-normalized response) (Drosophila OR71a; VOC concentration 10 μM) | OR71a response (VUAA1-normalized response) (Drosophila OR71a; VOC concentration 100 μM) | DF norm AVERAGE OR71a (Drosophila OR71a; [1]) | DF norm AVERAGE OR49b (Drosophila OR49b; [7]) | DF norm AVERAGE OR49b (Drosophila OR49b; [8]) | DF norm AVERAGE OR49b (Drosophila OR49b; [9]) | DF norm AVERAGE OR71a (Drosophila OR71a; [7]) | DF norm AVERAGE OR71a (Drosophila OR71a; [8]) | DF norm AVERAGE OR71a (Drosophila OR71a; [9]) | further results |
| --- | --- | --- | --- | --- | --- | --- | --- | --- | --- | --- | --- | --- | --- | --- | --- | --- | --- | --- | --- | --- | --- |
| C=C(C)[C@H]1CC=C(C)CC1 [(R)-(+)-limonene] | 0 | 0.00 | 0.00 | 0.0168 | 0.00 | 0.00 | 0.00 | 0.0368 | 0.00 | 0.00 | 0.00 | 0.00 | 0.00 | 0 | – | – | – | – | – | – | DF norm AVERAGE OR71a (Drosophila OR71a; [2]): 0; DF norm AVERAGE OR71a (Drosophila OR71a; [3]): 0 |
| CCCCOC(=O)CC [butyl propanoate] | – | 0.00 | 0.00 | 0.00 | – | – | – | 0.00 | 0.00 | 0.03 | – | – | – | – | 0 | 0 | 0 | 0 | 0 | 0 | activation at 1 µM (Drosophila OR49b; [4]): 0%; activation at 10 µM (Drosophila OR49b; [5]): 0%; activation at 100 µM (Drosophila OR49b; [6]): 0%; activation at 1 µM (Drosophila OR71a): 0%; activation at 10 µM (Drosophila OR71a): 0%; activation at 100 µM (Drosophila OR71a): 0% |
| C=C(C)[C@H]1CC=C(C)CC1 [limonene] | – | 0.00 | 0.00 | 0.028 | 0.00 | 0.00 | 0.00 | 0.00 | 0.00 | 0.00 | 0.00 | 0.00 | 0.00 | – | 0 | 0 | 0 | 0 | 0 | 0 | – |
| CCCCCO [1-pentanol] | 0 | 0.00 | 0.00 | 0.0167 | – | – | – | 0.0261 | 0.00 | 0.00 | – | – | – | 0 | – | – | – | – | – | – | activation at 1 µM (Drosophila OR49b; [4]): 0%; activation at 10 µM (Drosophila OR49b; [5]): 0%; activation at 100 µM (Drosophila OR49b; [6]): 0%; activation at 1 µM (Drosophila OR71a): 0%; activation at 10 µM (Drosophila OR71a): 0%; activation at 100 µM (Drosophila OR71a): 0%; DF norm AVERAGE OR71a (Drosophila OR71a; [2]): 0; DF norm AVERAGE OR71a (Drosophila OR71a; [3]): 0 |
| CC/C=C\CCOC(C)=O [z3-hexenyl acetate] | – | 0.0379 | 0.0171 | 0.04 | – | – | – | 0.00 | 0.00 | 0.00 | – | – | – | – | – | – | – | – | – | – | DF norm AVERAGE OR49b (Drosophila OR49b; [10]): 0; DF norm AVERAGE OR49b (Drosophila OR49b; [11]): 0; DF norm AVERAGE OR49b (Drosophila OR49b; [12]): 0; DF norm AVERAGE OR71a (Drosophila OR71a; [10]): 0; DF norm AVERAGE OR71a (Drosophila OR71a; [11]): 0; DF norm AVERAGE OR71a (Drosophila OR71a; [12]): 0 |
| Cc1ccccc1 [toluene] | – | 0.00 | 0.00 | 0.44 | – | – | – | 0.00 | 0.00 | 0.00 | – | – | – | – | – | – | – | – | – | – | activation at 1 µM (Drosophila OR49b; [13]): 0%; activation at 10 µM (Drosophila OR49b; [14]): 0%; activation at 100 µM (Drosophila OR49b; [15]): 44%; OR49b response (VUAA1-normalized) at 1 μM (Drosophila OR49b; VOC concentration 1 μM): 0.00; OR49b response (VUAA1-normalized) at 10 μM (Drosophila OR49b; VOC concentration 10 μM): 0.00; OR49b response (VUAA1-normalized) at 100 μM (Drosophila OR49b; VOC concentration 100 μM): 0.44; DF norm AVERAGE OR49b (Drosophila OR49b; [10]): 0; DF norm AVERAGE OR49b (Drosophila OR49b; [11]): 0; DF norm AVERAGE OR49b (Drosophila OR49b; ligand concentration 100 (unit not given), […]): 0.4351; OR71a response (VUAA1-normalized) at 1 μM (Drosophila OR71a; VOC concentration 1 μM): 0.00; OR71a response (VUAA1-normalized) at 10 μM (Drosophila OR71a; VOC concentration 10 μM): 0.00; OR71a response (VUAA1-normalized) at 100 μM (Drosophila OR71a; VOC concentration 100 μM): 0.00; DF norm AVERAGE OR71a (Drosophila OR71a; [10]): 0; DF norm AVERAGE OR71a (Drosophila OR71a; [11]): 0; DF norm AVERAGE OR71a (Drosophila OR71a; [12]): 0 |
| (+)-beta-cedrene | 0 | 0.00 | 0.0336 | 0.00 | 0.00 | 0.00 | 0.00 | 0.0243 | 0.03 | 0.00 | 0.00 | 0.00 | 0.00 | 0 | – | – | – | – | – | – | DF norm AVERAGE OR71a (Drosophila OR71a; [2]): 0; DF norm AVERAGE OR71a (Drosophila OR71a; [3]): 0 |
| CC1=CC[C@@H](C(C)(C)O)CC1 [alpha-terpineol] | – | 0.00 | 0.00 | 0.0245 | – | – | – | 0.00 | 0.00 | 0.04 | – | – | – | – | 0 | 0 | 0 | 0 | 0 | 0 | activation at 1 µM (Drosophila OR49b; [4]): 0%; activation at 10 µM (Drosophila OR49b; [5]): 0%; activation at 100 µM (Drosophila OR49b; [6]): 0%; activation at 1 µM (Drosophila OR71a): 0%; activation at 10 µM (Drosophila OR71a): 0%; activation at 100 µM (Drosophila OR71a): 0% |
| Cc1ccccc1C [o-xylene] | – | 0.00 | 0.09 | 0.64 | – | – | – | 0.00 | 0.00 | 0.00 | – | – | – | – | 0 | 0.08728 | 0.6438 | 0 | 0 | 0 | activation at 1 µM (Drosophila OR49b; [13]): 0%; activation at 10 µM (Drosophila OR49b; [14]): 9%; activation at 100 µM (Drosophila OR49b; [15]): 64%; OR49b response (VUAA1-normalized) at 1 μM (Drosophila OR49b; VOC concentration 1 μM): 0.00; OR49b response (VUAA1-normalized) at 10 μM (Drosophila OR49b; VOC concentration 10 μM): 0.09; OR49b response (VUAA1-normalized) at 100 μM (Drosophila OR49b; VOC concentration 100 μM): 0.64; OR71a response (VUAA1-normalized) at 1 μM (Drosophila OR71a; VOC concentration 1 μM): 0.00; OR71a response (VUAA1-normalized) at 10 μM (Drosophila OR71a; VOC concentration 10 μM): 0.00; OR71a response (VUAA1-normalized) at 100 μM (Drosophila OR71a; VOC concentration 100 μM): 0.00 |
